Assay: Serum concentration and pharmacokinetics of SCI after oral gavage in Wistar rats
Format: in vivo, Wistar rat
Experimental: All procedures were performed according to the Local Ethical Committee of Experiments on Animals guidelines in Olsztyn, Poland. The experiment was conducted in the same way as described by Antonowski et al.. Briefly, the experiment was performed on male Wistar rats (n = 6). Rats were maintained in ventilated rooms under a standard day photoperiod (12:12 h light–dark) as well as with lights on from 700 to 1900 h at 21 °C. All rats had free access to food and water. At 42 days of age, rats were randomized into experimental groups (Table 1 and Table 4).
Before the administration of cyclitol (10 mg/kg), the rats were fasting for 12 h (Table 1). […] Access to water was unlimited during the experiments. The study group (n = 6) was divided into two subgroups (n = 3 rats per subgroup). This practice allows for the use of only 6 rats for the entire experiment in accordance with the 3 Rs principle. Rats received the compound at a dose of 10 mg/kg body weight. Rats were weighed before starting the compound administration. Cyclitol was administered to the rats from the study group using a stainless-steel gastric tube with a ball tip (manufacturer—Agnthos, curved gastric tube, 16G, 3 mm tip, 75 mm). Cyclitol was dissolved in distilled water to a maximum volume of 1 mL. The prepared solution was administered to the animal.
Blood samples were collected into Eppendorf tubes and were centrifuged at 2500× g for 10 min at 8 °C the following day. Blood was harvested from the tail at a specific time. […] Serum was stored at −80 °C for subsequent analyses.
The analysis is described in detail by Antonowski and co-workers. Briefly, the first step was to remove the protein, then concentrate the sample in a speed vacuum evaporator to dryness. Next, samples were analyzed using the high-resolution gas chromatography method. We used a gas chromatograph GC2010Plus (Shimadzu, Tokyo, Japan) with a capillary column ZEBRON ZB-1 (15 m length, 0.25 mm diameter, and 0.1 μm film thickness, Phenomenex, Torrance, CA, USA). Helium was used as a carrier gas (at a flow rate of 1.18 mL min^−1). […] Finally, scyllo-inositol was quantified by using a standard.
The PK parameters were calculated using PK Solver. PKSolver is an add-in program for pharmacokinetic and pharmacodynamic data analysis […]. […] The area under the drug concentration–time curve from time zero to the time of the last quantifiable concentration (AUClast) was calculated using the trapezoidal rule. The volume over which the drug was distributed (Vd) and clearance (CL) were conducted by PK Solver. […] Nevertheless, we estimated K by log-linear regression analysis on data points on the terminal log-linear phase. Noncompartmental analysis is generally the preferred methodology to use in that it requires fewer assumptions than model-based approaches. We presented the results for individual rats, subgroups of rats, and for all subjects studied. The content of scyllo-inositol was calculated from the standard curves of appropriate components. To determine the terminal phase, […] was sufficient.
An analysis of all parameters was carried out with GraphPad Prism software (Version 10 Graph Pad Software Inc., La Jolla, CA, USA). Data are expressed as means ± SEM or individual data. Briefly, AUClast was calculated using the trapezoidal method. The T0.5 of oral administration was calculated as 0.693/K.

[1] = Mean of rats 1–3 ± SEM, serum, oral 10 mg/kg

In the case of `O[C@H]1[C@H](O)[C@@H](O)[C@H](O)[C@@H](O)[C@@H]1O` [SCI, scyllo-inositol], the CL [1] is reported as 0.112 ± 0.008 (95%CI: 0.145–0.079) L/h, the Vd [1] is reported as 4.182 ± 2.287 (95%CI: 14.02–(−5.656)) L and the CL (Mean of rats 4–6 ± SEM, serum, oral 10 mg/kg) is reported as 0.216 ± 0.055 (95%CI: 0.451–(−0.02)) L/h. The CL (Rat No 1, serum, oral 10 mg/kg) was 0.1 L/h, the Vd (Rat No 1, serum, oral 10 mg/kg) was 0.039 L and the CL (Rat No 2, serum, oral 10 mg/kg) was 0.11 L/h. The Vd (Rat No 2, serum, oral 10 mg/kg) was 7.93 L, the CL (Rat No 3, serum, oral 10 mg/kg) was 0.126 L/h and the Vd (Rat No 3, serum, oral 10 mg/kg) was 4.578 L. The CL (Rat No 4, serum, oral 10 mg/kg) was 0.325 L/h, the Vd (Rat No 4, serum, oral 10 mg/kg) was 0.358 L and the CL (Rat No 5, serum, oral 10 mg/kg) was 0.16 L/h. For the same molecule, the Vd (Rat No 5, serum, oral 10 mg/kg) was 0.9967 L, the CL (Rat No 6, serum, oral 10 mg/kg) was 0.162 L/h and the Vd (Rat No 6, serum, oral 10 mg/kg) was 0.566 L. For the same molecule, the “Concentration of SCI in serum” value (Rat No. 1, time 0 h, oral 10 mg/kg) was “BLQ”, the “Concentration of SCI in serum” value (Rat No. 1, time 0.25 h, oral 10 mg/kg) was “BLQ” and the “Concentration of SCI in serum” value (Rat No. 1, time 12 h, oral 10 mg/kg) was “BLQ”. The “Concentration of SCI in serum” value (Rat No. 1, time 24 h, oral 10 mg/kg) was “BLQ”, the “Concentration of SCI in serum” value (Rat No. 2, time 0 h, oral 10 mg/kg) was “BLQ” and the “Concentration of SCI in serum” value (Rat No. 2, time 0.25 h, oral 10 mg/kg) was “BLQ”. The “Concentration of SCI in serum” value (Rat No. 2, time 12 h, oral 10 mg/kg) was “BLQ”, the “Concentration of SCI in serum” value (Rat No. 2, time 24 h, oral 10 mg/kg) was “BLQ” and the “Concentration of SCI in serum” value (Rat No. 3, time 0 h, oral 10 mg/kg) was “BLQ”. The “Concentration of SCI in serum” value (Rat No. 3, time 0.25 h, oral 10 mg/kg) was “BLQ”, the “Concentration of SCI in serum” value (Rat No. 3, time 12 h, oral 10 mg/kg) was “BLQ” and the “Concentration of SCI in serum” value (Rat No. 3, time 24 h, oral 10 mg/kg) was “BLQ”. The “Concentration of SCI in serum” value (Rat No. 4, time 36 h, oral 10 mg/kg) was “BLQ”, the “Concentration of SCI in serum” value (Rat No. 4, time 48 h, oral 10 mg/kg) was “BLQ” and the “Concentration of SCI in serum” value (Rat No. 5, time 36 h, oral 10 mg/kg) was “BLQ”. For the same molecule, the “Concentration of SCI in serum” value (Rat No. 5, time 48 h, oral 10 mg/kg) was “BLQ”, the “Concentration of SCI in serum” value (Rat No. 6, time 36 h, oral 10 mg/kg) was “BLQ” and the “Concentration of SCI in serum” value (Rat No. 6, time 48 h, oral 10 mg/kg) was “BLQ”. For the same molecule, the concentration at 0 min (male, Wistar, rat, serum, oral, 10 mg/kg, Mean concentration of SCI in serum, at the point of administration (0 min), rats 1–3) was 0 ng/mL, the concentration at 0.5 h (male, Wistar, rat, serum, po, 10 mg/kg, Concentration of SCI in serum, Rat No. 1, oral 10 mg/kg) was 1000 ng/mL and the concentration at 1 h (male, Wistar, rat, serum, po, 10 mg/kg, Concentration of SCI in serum, Rat No. 1, time 1 h, oral 10 mg/kg) was 1600 ng/mL. It also gave a concentration at 1.5 h (male, Wistar, rat, serum, po, 10 mg/kg, Concentration of SCI in serum, Rat No. 1, time 1.5 h, oral 10 mg/kg) of 7200 ng/mL, a concentration at 0.5 h (male, Wistar, rat, serum, po, 10 mg/kg, Concentration of SCI in serum, Rat No. 2, oral 10 mg/kg) of 4600 ng/mL and a concentration at 1 h (male, Wistar, rat, serum, po, 10 mg/kg, Concentration of SCI in serum, Rat No. 2, time 1 h, oral 10 mg/kg) of 5600 ng/mL. It also gave a concentration at 1.5 h (male, Wistar, rat, serum, po, 10 mg/kg, Concentration of SCI in serum, Rat No. 2, time 1.5 h, oral 10 mg/kg) of 6200 ng/mL, a concentration at 0.5 h (male, Wistar, rat, serum, po, 10 mg/kg, Concentration of SCI in serum, Rat No. 3, oral 10 mg/kg) of 5600 ng/mL and a concentration at 1 h (male, Wistar, rat, serum, po, 10 mg/kg, Concentration of SCI in serum, Rat No. 3, time 1 h, oral 10 mg/kg) of 6800 ng/mL. The concentration at 1.5 h (male, Wistar, rat, serum, po, 10 mg/kg, Concentration of SCI in serum, Rat No. 3, time 1.5 h, oral 10 mg/kg) was 4400 ng/mL, the concentration at 2 h (male, Wistar, rat, serum, po, 10 mg/kg, Concentration of SCI in serum, Rat No. 4, time 2 h, oral 10 mg/kg) was 3200 ng/mL and the concentration at 4 h (male, Wistar, rat, serum, po, 10 mg/kg, Concentration of SCI in serum, Rat No. 4, time 4 h, oral 10 mg/kg) was 600 ng/mL. For the same molecule, the concentration at 8 h (male, Wistar, rat, serum, po, 10 mg/kg, Concentration of SCI in serum, Rat No. 4, time 8 h, oral 10 mg/kg) was 400 ng/mL, the concentration at 2 h (male, Wistar, rat, serum, po, 10 mg/kg, Concentration of SCI in serum, Rat No. 5, time 2 h, oral 10 mg/kg) was 3800 ng/mL and the concentration at 4 h (male, Wistar, rat, serum, po, 10 mg/kg, Concentration of SCI in serum, Rat No. 5, time 4 h, oral 10 mg/kg) was 6100 ng/mL. The concentration at 8 h (male, Wistar, rat, serum, po, 10 mg/kg, Concentration of SCI in serum, Rat No. 5, time 8 h, oral 10 mg/kg) was 200 ng/mL, the concentration at 2 h (male, Wistar, rat, serum, po, 10 mg/kg, Concentration of SCI in serum, Rat No. 6, time 2 h, oral 10 mg/kg) was 5400 ng/mL and the concentration at 4 h (male, Wistar, rat, serum, po, 10 mg/kg, Concentration of SCI in serum, Rat No. 6, time 4 h, oral 10 mg/kg) was 3600 ng/mL. It also gave a concentration at 8 h (male, Wistar, rat, serum, po, 10 mg/kg, Concentration of SCI in serum, Rat No. 6, time 8 h, oral 10 mg/kg) of 400 ng/mL, a concentration at 30 min (male, Wistar, rat, serum, po, 10 mg/kg, Mean concentration of SCI in serum, 30 min after oral 10 mg/kg, mean of rats 1–3) of 3730 ng/mL and a concentration at 1 h (male, Wistar, rat, serum, po, 10 mg/kg, Mean concentration of SCI in serum, 1 h after oral 10 mg/kg, mean of rats 1–3) of 4670 ng/mL. The concentration at 1.5 h (male, Wistar, rat, serum, po, 10 mg/kg, Mean concentration of SCI in serum, 1.5 h after oral 10 mg/kg, mean of rats 1–3) was 5930 ng/mL, the concentration at 2 h (male, Wistar, rat, serum, po, 10 mg/kg, Mean concentration of SCI in serum, 2 h after oral 10 mg/kg, mean of rats 4–6) was 4130 ng/mL and the concentration at 4 h (male, Wistar, rat, serum, po, 10 mg/kg, Mean concentration of SCI in serum, 4 h after oral 10 mg/kg, mean of rats 4–6) was 3430 ng/mL. The concentration at 8 h (male, Wistar, rat, serum, po, 10 mg/kg, Mean concentration of SCI in serum, 8 h after oral 10 mg/kg, mean of rats 4–6) was 330 ng/mL and the concentration at 12 h (male, Wistar, rat, serum, po, 10 mg/kg, Mean concentration of SCI in serum, 12 h after oral 10 mg/kg, rats 1–3) was 0 ng/mL.

Reference: PMC12299890 (Pharmaceuticals, 2025)
